Test results: publication PMC5519928, “Log D versus HPLC derived hydrophobicity: The development of predictive tools to aid in the rational design of bioactive peptoids” (Biopolymers, 2017)
In brackets after ≈: the same amount, converted by molar mass. Non-standard residues stand in square brackets, D forms with d. Residues, ends and D or L forms follow the SMILES beside them. Nspe = C[C@H](NCC(=O)O)c1ccccc1; Nlys = NCCCCNCC(=O)O

What was measured:
[1] = system: L. mexicana promastigotes; assay: Cytotoxicity assay with Leishmania mexicana M379 promastigotes (alamarBlue); assay type: cell-based; details: 1 h pre-incubation with compound, then 24 h incubation, alamarBlue 4 h, fluorescence Ex 560/Em 600 nm, triplicate, minimum of two separate occasions, ED50 = median effective dose
Experimental: Leishmania mexicana (M379) promastigote parasites were maintained at 26 °C in Schneider's Insect medium (Sigma-Aldrich) supplemented with heat-inactivated foetal bovine sera (FBS, 15%; Biosera Ltd). Cells were counted using a Neubauer Improved Haemocytometer. Promastigotes were transformed into axenic amastigotes by a pH and temperature shift as previously described.5 A culture of recently transformed (three days) promastigotes in the late log phase was transferred into Schneider's Insect medium supplemented with 20% heat-inactivated FBS (pH 5.5) at 5 x 10^5 parasites/mL. […] After additional 5–7 days, the parasites should be in the amastigote stage and be ready for cytotoxicity studies and infections.
Cytotoxicity analyses were performed in 96-well plates (Costar, Fisher Scientific) using alamarBlue (Invitrogen) for cell viability detection as previously described.6 Promastigote and amastigote L. mexicana were pre-incubated with the compounds in triplicate (5 mM stock solutions in DMSO; Amphotericin B was used as a positive control; untreated parasites with DMSO as a negative control) in 50 µL of the corresponding media at 4 x 106 mL-1 for 1 hour. […] Then, 10 µL alamarBlue solution (Invitrogen) was added to each well for an incubation of 4 hours prior to assessing cell viability using a fluorescent plate reader (Biotek; Ex 560 nm / Em 600 nm). […]

E. coli = assay type: cell-based; details: Iso-sensitest broth, 96-well, 2-100 µM 1:2 serial dilutions, 38 °C 16 h with shaking, absorbance; lowest concentration completely inhibiting growth; triplicate, minimum of two occasions
Experimental: (§1) Bacterial cultures were prepared by streaking the bacterial strain from a 4°C- or frozen stock culture to single colonies onto agar plates (containing the appropriate antibiotic for strains carrying antibiotic resistance plasmids) with an inoculation loop, followed by overnight incubation at 37 °C.
(§2) Primary overnight (o/n) cultures were prepared by inoculating a single colony from a streak plate into 5 mL of LB broth in a screw-capped culture tube, that was placed on a tube rotator at 37 °C (or 30 °C for sensitive strains) for overnight incubation. Before the usage of stock cultures the strains genotype were checked. Primary stocks were stored at 4°C for up to 6 weeks and always replaced from fresh colonies.
(§3) Fresh cultures used for experiments contained 0.1-0.5 mL o/n culture diluted into 8 mL of fresh medium in a standard test tube. Placed in a shaking water bath or on a tube rotator the bacteria were grown at the required temperature to the required cell density. Frozen stock cultures used for long term storage that can remain viable for 10 years were prepared by mixing 2.5 mL fresh o/n culture with 1.5 mL sterile 80% glycerol in a 5 mL sterile blood tube and stored at -20 °C.
(§4) MIC values were attained according to the previously described protocol4 and were conducted in 96-well plates (Costar, Fisher Scientific). Using the pre-prepared cultures, an innoculum density of 0.07 at 650 nm was set by comparing the absorbance with 0.5 MacFarland standard (240 μM BaCl2 in 0.18 M H2SO4). The innoculum was then diluted down ten-fold with Iso-sensitest broth (Oxoid, ThermoScientific) before use. Peptoids were initially dissolved in DMSO (5 mM) and then diluted further with Iso-sensitest broth to achieve a concentration range of 4 – 200 µM using 1 : 2 serial dilutions. 50 μl of innoculum and 50 μL of peptoid solution were added to each test well (final concentration range of 2 – 100 µM). Positive control containing only innoculum and Iso-sensitest broth; negative control containing inoculum and serial dilutions of ampicillin (from 250 microgram/mL to 2 microgram per mL); DMSO control containing innoculum and serial dilutions of DMSO; and Iso-sensitest broth were used as a sterile control. […] Quantitative data was attained from absorbance values using a microplate reader.

S. aureus = assay type: cell-based; details: Iso-sensitest broth, 96-well, 2-100 µM 1:2 serial dilutions, 38 °C 16 h with shaking, absorbance; lowest concentration completely inhibiting growth; triplicate, minimum of two occasions
Experimental: as §1, §2, §3, §4

[2] = Average hydrophobicity by analytical reverse-phase HPLC retention; assay type: physicochemical
Experimental: To examine the average hydrophobicity of the peptoids, the retention time for from reverse‐phase HPLC was determined on a C18 column using acetonitrile and water, with 0.1% TFA (see Figure 3A). To find log D values, partitioning experiments were carried out, as illustrated by Figure 2. A peptoid solution (between 10 and 100 µM) in PBS was added to an equal volume of octanol and the system allowed to equilibrate under gentle agitation for ∼150 h (as 48 h was not found to be sufficient for the system to reach equilibrium). At this point it is assumed that the peptoid has partitioned between these two phases, such as to minimise its free energy.
Preparative RP‐HPLC was performed with a semi‐preparative Perkin Elmer Series 200 lc pump fitted with a 785A UV/Vis detector using a SB‐Analytical ODH‐S optimal column (250 mm × 10 mm, 5 µm); flow rate 2 mL min^−1; λ = 250 nm, typical linear gradient elution 0–50% of solvent B over 60 min (A = 0.1% TFA in 95% H2O and 5% MeCN, B = 0.1% TFA in 5% H2O and 95% MeCN). Analytical RP‐HPLC was performed with a Perkin Elmer Series 200 LC pump fitted with a Series 200 UV/Vis detector using a SB‐Analytical ODH‐S optimal column (100 mm × 1.6 mm, 3.5 µm); flow rate 1 mL min^−1; λ = 220 nm, linear gradient elution 0–100% of solvent B over 30 min (A = 0.05% TFA, 95% H2O, 5% MeCN, B = 0.03% TFA, 5% H2O, 95% MeCN).
Preparative RP-HPLC was performed with a semi-preparative Perkin Elmer Series 200 lc pump fitted with a 785A UV/Vis detector using a SB-Analytical ODH-S optimal column (250 × 10 mm, 5 µm); flow rate 2 ml min^−1; λ = 250 nm, typical linear gradient elution 0-50% of solvent B over 60 min (A = 0.1% TFA in 95% H2O and 5% MeCN, B = 0.1% TFA in 5% H2O and 95% MeCN). Analytical RP-HPLC was performed with a Perkin Elmer Series 200 LC pump fitted with a Series 200 UV/Vis detector using a SB-Analytical ODH-S optimal column (100 × 1.6 mm, 3.5 µm); flow rate 1 ml min^−1; λ = 220 nm, linear gradient elution 0-100% of solvent B over 30 min (A = 0.05% TFA, 95% H2O, 5% MeCN, B = 0.03% TFA, 5% H2O, 95% MeCN).
Table S3. Data from analytical RP-HPLC for representative compounds of this peptoid library. Analytical HPLC gradient: 0 – 100% solvent B over 30 min at 220 nm (where solvent A = 95% H2O, 5% MeCN, 0.05 % TFA; solvent B = 95% MeCN, 5% H2O, 0.03% TFA).

## C[C@@H](c1ccccc1)N(CC(N)=O)C(=O)CN(C(=O)CN(CCCCN)C(=O)CN(C(=O)CN(C(=O)CN(CCCCN)C(=O)CN(C(=O)CN(C(=O)CN(CCCCN)C(=O)CN(C(=O)CN(C(=O)CNCCCCN)[C@@H](C)c1ccccc1)[C@@H](C)c1ccccc1)[C@@H](C)c1ccccc1)[C@@H](C)c1ccccc1)[C@@H](C)c1ccccc1)[C@@H](C)c1ccccc1)[C@@H](C)c1ccccc1 [Peptoid 4] (H-[Nlys][Nspe][Nspe][Nlys][Nspe][Nspe][Nlys][Nspe][Nspe][Nlys][Nspe][Nspe]-NH2)
[1]
  ED50 L. mex prom.: 8 µM
E. coli
  MIC E. coli: 25 µM (≈ 45.5 µg/mL)
S. aureus
  MIC S. aureus: 2 µM (≈ 3.64 µg/mL)
[2]; Supplement table 4 (chemical and physical data for peptoid library), % MeCN at elution in RP-HPLC
  RP-HPLC Retention (% MeCN): 42 % MeCN
[2]; Table 2 / main text, chromatographic, RP-HPLC C18 retention time as measure of average hydrophobicity, gradient 0-100% solvent B over 30 min, 220 nm, 1 mL/min, A = 0.05% TFA, 95% H2O, 5% MeCN, B = 0.03% TFA, 5% H2O, 95% MeCN, around pH 2.2
  HPLC RT: 14.9 min
